Laboratory results as given in patent US20240377291A1, “AZETIDINE SUBSTITUTED ROSAMINES USEFUL FOR STAINING MITOCHONDRIA” (TOCRIS COOKSON LIMITED, priority 2021, published 2024).

Assays:
Format in all cases: cell-based
[1] = tested on: mitochondria in COS-7 cells; experiment: Mitochondrial membrane de-polarisation experiments (CCCP) in COS-7 cells; conditions: for mitochondrial signal after CCCP Chase (depolarization after staining) / mitochondrial accumulation after depolarizing the membrane potential with CCCP before staining: 100 nM dye 30 minutes; for mitochondrial signal after CCCP Chase (depolarization after staining): then 20 μM CCCP 30 minutes; for mitochondrial accumulation after depolarizing the membrane potential with CCCP before staining: 20 μM CCCP pre-treatment 30 minutes
Protocol: COS-7 cells were pre-treated with media or 20 μM CCCP for 30 minutes followed by a staining step with 100 nM COMPOUND 5 or 100 nM Comparator (MitoTracker Deep Red FM) for 30 minutes in the presence/absence of 20 μM CCCP. After the staining, excessive dye was washed out with media, with or without 20 μM CCCP for 30 minutes.

[2] = tested on: mitochondria in COS-7 cells; experiment: Staining of COS-7 cells at varying concentrations followed by PFA fixation, spinning disk confocal imaging; conditions: for toxicity at 200 nM: 30 minutes; for mitochondrial staining at low concentrations: then 4% PFA fixation; for effect of high concentration on mitochondria (fragmentation and peri-nuclear clustering suggesting toxic effects): above 200 nM
Protocol: Both COMPOUND 5 and the Comparator show some toxicity at 200 nM. COMPOUND 5 gives nice staining at 25-100 nM.
In FIG. 4 (scale bar=10 μm), images are shown after COS-7 cells were stained for 30 minutes with indicated concentrations followed by immediate fixation with 4% PFA for 20 minutes at 37° C. Images were acquired using a spinning disk confocal microscope with identical exposure time and laser power and were processed with identical settings to allow a direct comparison.

[3] = tested on: mitochondria in HeLa cells; experiment: Co-localization with TOM20 antibody in fixed HeLa cells (probe added before fixation)
Source text: In each experiment, an antibody for the mitochondrial marker TOM20 has also been added. Co-localization of TOM20 and mitochondrial probes is directly compared in the merged data.

[4] = tested on: mitochondria in HeLa cells; experiment: Co-staining of COMPOUND 5 with DRP1 antibody NBP2-23489 on fixed, permeabilized HeLa cells; conditions: 200 nM, 15 minutes, room temperature
Protocol: NBP2-23489 was incubated on fixed, permeabilized HeLa cells at 8 μg/mL for 2 hours at room temperature. Cells were then incubated with an NL557 secondary antibody (R&D Systems; Catalog #NL007) for 1 hour at room temperature protected from light. Lastly, cells were incubated with COMPOUND 5 at 200 nM for 15 minutes at room temperature protected from light. Cells were cover-slipped with a DAPI-containing mounting media and imaged. Antibody staining was pseudo-coloured green, and mitochondrial marker staining was pseudo-coloured red.

[5] = tested on: mitochondria in HeLa cells; experiment: Staining of HeLa cells at a single concentration followed by fixation; conditions: 100 nM probe 40 minutes, then 4% PFA 10 minutes
Protocol: In FIG. 5 (scale bar=10 μm), images are shown after HeLa cells were stained with 100 nM probe for 40 minutes, followed by fixation with 4% PFA for 10 minutes. Laser power and gain have been optimized for each individual probe in this figure.

[6] = tested on: mitochondria in HeLa cells; experiment: Post-fixation staining of HeLa cells, intensity profiles compared with a Comparator added before fixation; conditions: HeLa cells fixed with 4% PFA 20 min; COMPOUND 5 75 nM added after fixation
Protocol: COMPOUND 5 and the Comparator have distinct absorption and emission maxima. Intensity profiles (lower panel) taken across a set frame are shown for both COMPOUND 5 and Comparator.
Live HeLa cells were stained with a Comparator (250 nM, 45 min) and were then fixed (4% PFA, 20 min). After fixation, COMPOUND 5 (75 nM) was added and the cells were imaged. COMPOUND 5 and Comparator have distinct absorption and emission profiles and spill over between channels was not observed. Intensity profiles for both mitochondrial stains were taken across a set frame (lower panel) and compared.

| Structure (SMILES) | mitochondrial signal after CCCP Chase (depolarization after staining) [1] | mitochondrial accumulation after depolarizing the membrane potential with CCCP before staining [1] | toxicity at 200 nM ([2]; COS-7 cells) | mitochondrial staining at low concentrations ([2]; COS-7 cells, 25-100 nM, 30 min) | effect of high concentration on mitochondria (fragmentation and peri-nuclear clustering suggesting toxic effects) ([2]; COS-7 cells) | staining of non-mitochondrial structures (ER, nuclear envelope) at high concentrations ([2]; COS-7 cells) | co-localization with mitochondrial marker TOM20 after fixation [3] | mitochondrial localization (overlap with antibody staining) [4] | speed of mitochondrial staining relative to Comparator ([1]; inferred from CCCP chase) | toxicity at low concentrations ([2]; COS-7 cells, 25-100 nM, 30 min) | brightness compared to the Comparator ([2]; fixed COS-7 cells, particularly at 25 nM and 50 nM) | staining of mitochondria following fixation compared to a Comparator [5] | staining profile when added after fixation, compared with Comparator added before fixation [6] |
| --- | --- | --- | --- | --- | --- | --- | --- | --- | --- | --- | --- | --- | --- |
| C[N+]1=C(/C=C/C=C/C=C2\N(Cc3ccc(CCl)cc3)c3ccccc3C2(C)C)C(C)(C)c2ccccc21.[Cl-] [Comparator, MitoTracker Deep Red FM, reference compound] | reversible | reduces the mitochondrial accumulation | some toxicity | decreased at low concentration | mitochondrial alterations | stained additionally other cellular structures |  |  |  |  |  |  |  |
| COC1CN(c2ccc3c(-c4ccccc4CCl)c4ccc(=[N+]5CC(OC)C5)cc-4oc3c2)C1 (centres unmarked) [COMPOUND 9, 1-(9-(2-(chloromethyl)phenyl)-6-(3-methoxyazetidin-1-yl)-3H-xanthen-3-ylidene)-3-methoxyazetidin-1-ium chloride] |  |  |  |  |  |  | co-localize with the mitochondrial marker TOM20 |  |  |  |  |  |  |
| C[Si]1(C)C2=CC(=[N+]3CCC3)C=CC2=C(c2ccccc2CCl)c2ccc(N3CCC3)cc21 [COMPOUND 5, 1-(7-(azetidin-1-yl)-10-(2-(chloromethyl)phenyl)-5,5-dimethyldibenzo[b,e]silin-3(5H)-ylidene)azetidin-1-ium chloride] | strong mitochondrial signal | reduces the mitochondrial accumulation | some toxicity | good mitochondrial signal with little background | mitochondrial alterations | stained additionally other cellular structures |  | localizes specifically to the mitochondria | more rapidly than the Comparator | no obvious toxicity | significantly improved brightness | retains clearer staining of mitochondria | very high similarity in staining profile |
| ClCc1ccccc1-c1c2ccc(=[N+]3CCC3)cc-2oc2cc(N3CCC3)ccc12 [COMPOUND 8, 1-(6-(azetidin-1-yl)-9-(2-(chloromethyl)phenyl)-3H-xanthen-3-ylidene)azetidin-1-ium chloride] |  |  |  |  |  |  | co-localize with the mitochondrial marker TOM20 |  |  |  |  |  |  |
